In patent publication US10543212B2, “Substituted amines for treating cardiac diseases” (Cardurion Pharmaceuticals, LLC, priority 2017, dated 2020):

Target: T1, Full-length, GST-tagged, human CaMKIIδ (Homo sapiens, UniProt Q13557)
T1 construct: Full-Length, Glutathione-S-Transferase(GST)-Tagged, Human CaMKIIδ was purchased from Carna Biosciences; purchased Carna Biosciences 02-111
Assay: CaMKIIδ binding assay (TR-FRET with BODIPY-labeled probe ligand)
Outline: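 TR-FRET probe-displacement binding: 0.5 nM GST-CaMKIIδ with 10 μg/mL calmodulin, 1 mM CaCl2, 0.21 nM Tb-anti-GST Ab and 300 nM BODIPY probe in HEPES pH 7.6 buffer. Eight-point 4-fold dilutions, 1 hr at room temperature. IC50 from logistic fit; 100% inhibition defined by 3 μM parent compound.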

[1] = Table 2, CaMKIIδ binding assay, activity given as class A/B/C
[2] = Table 2, activity class for CaMKIIδ
[3] = CaMKIIδ binding assay, results of Table 2
[4] = CaMKIIδ binding assay, activity class per Table 2

T1 sequence (Q13557 1-478 isoform Q13557-12): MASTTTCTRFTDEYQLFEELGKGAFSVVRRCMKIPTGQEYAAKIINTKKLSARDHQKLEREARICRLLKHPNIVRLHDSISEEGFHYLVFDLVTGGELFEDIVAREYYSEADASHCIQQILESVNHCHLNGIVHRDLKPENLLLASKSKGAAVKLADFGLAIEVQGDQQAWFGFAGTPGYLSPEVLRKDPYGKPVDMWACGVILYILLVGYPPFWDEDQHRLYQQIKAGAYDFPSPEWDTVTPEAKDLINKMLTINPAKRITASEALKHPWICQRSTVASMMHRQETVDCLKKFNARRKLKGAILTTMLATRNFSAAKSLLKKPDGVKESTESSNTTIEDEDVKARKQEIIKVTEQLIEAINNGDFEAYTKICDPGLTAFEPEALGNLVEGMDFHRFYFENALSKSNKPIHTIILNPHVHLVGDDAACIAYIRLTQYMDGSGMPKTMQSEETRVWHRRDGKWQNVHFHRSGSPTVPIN

C[C@@H](Cn1cnnn1)Oc1cc(-c2cnc(Nc3cn([C@@H]4C[C@H]5CC[C@@H](C4)N5C)nc3C(F)(F)F)nc2)ccc1Cl [Example 758, 5-(3-(((S)-1-(1H-tetrazol-1-yl)propan-2-yl)oxy)-4-chlorophenyl)-N-(1-((1R,3s,5S)-8-methyl-8-azabicyclo[3.2.1]octan-3-yl)-3-(trifluoromethyl)-1H-pyrazol-4-yl)pyrimidin-2-amine]
IC50 [1]: < 10 nM

C[C@@H](Cn1cnnn1)Oc1cc(-c2cnc(Nc3cn(CC(O)C(F)(F)F)nc3C(F)(F)F)nc2)ccc1Cl (stereo partly drawn) [Example 728, 3-(4-((5-(3-(((S)-1-(1H-tetrazol-1-yl)propan-2-yl)oxy)-4-chlorophenyl)pyrimidin-2-yl)amino)-3-(trifluoromethyl)-1H-pyrazol-1-yl)-1,1,1-trifluoropropan-2-ol]
IC50 [2]: 10 to 100 nM

COc1cc2c(cc1Nc1ncc(-c3ccc(Cl)c(O[C@@H](C)Cn4cnnn4)c3)cn1)CN(C1COC1)CCC2 [Example 467, (S)-N-(5-(3-((1-(1H-tetrazol-1-yl)propan-2-yl)oxy)-4-chlorophenyl)pyrimidin-2-yl)-7-methoxy-2-(oxetan-3-yl)-2,3,4,5-tetrahydro-1H-benzo[c]azepin-8-amine]
IC50 [3]: 10 to 100 nM

COc1cc(N2CCN(C3CCOCC3)CC2)cnc1Nc1ncc(-c2ccc(Cl)c(O[C@@H](C)Cn3cnnn3)c2)cn1 [Example 647, (S)-5-(3-((1-(1H-tetrazol-1-yl)propan-2-yl)oxy)-4-chlorophenyl)-N-(3-methoxy-5-(4-(tetrahydro-2H-pyran-4-yl)piperazin-1-yl)pyridin-2-yl)pyrimidin-2-amine]
IC50 [2]: 10 to 100 nM

COc1cc2c(cc1Nc1ncc(-c3ccc(C#N)c(O[C@@H](C)Cn4cnnn4)c3)cn1)CCN(C(=O)C(F)(F)F)C2 [Example 458, (S)-2-((1-(1H-tetrazol-1-yl)propan-2-yl)oxy)-4-(2-((7-methoxy-2-(2,2,2-trifluoroacetyl)-1,2,3,4-tetrahydroisoquinolin-6-yl)amino)pyrimidin-5-yl)benzonitrile]
IC50 [3]: 10 to 100 nM

COCC(C)n1cc(Nc2ncc(-c3ccc(Cl)c(O[C@@H](C)Cn4cnnn4)c3)cn2)c(OCC(F)(F)F)n1 (stereo partly drawn) [Example 776, 5-(3-(((S)-1-(1H-tetrazol-1-yl)propan-2-yl)oxy)-4-chlorophenyl)-N-(1-(1-methoxypropan-2-yl)-3-(2,2,2-trifluoroethoxy)-1H-pyrazol-4-yl)pyrimidin-2-amine]
IC50 [1]: < 10 nM

C[C@@H](Cn1cnnn1)Oc1cc(-c2cnc(Nc3cn(C4CCN(Cc5ccsc5)CC4)nc3C(F)(F)F)nc2)ccc1Cl [Example 560, (S)-5-(3-((1-(1H-tetrazol-1-yl)propan-2-yl)oxy)-4-chlorophenyl)-N-(1-(1-(thiophen-3-ylmethyl)piperidin-4-yl)-3-(trifluoromethyl)-1H-pyrazol-4-yl)pyrimidin-2-amine]
IC50 [3]: < 10 nM

COc1cc2c(cc1Nc1ncc(-c3ccc(Cl)c(O[C@@H](C)Cn4cnnn4)c3)cn1)C(=O)N(CCN(C)C)C2 [Example 512, (S)-6-((5-(3-((1-(1H-tetrazol-1-yl)propan-2-yl)oxy)-4-chlorophenyl)pyrimidin-2-yl)amino)-2-(2-(dimethylamino)ethyl)-5-methoxyisoindolin-1-one]
IC50 [3]: 10 to 100 nM

C[C@@H](Cn1cnnn1)Oc1cc(-c2cnc(Nc3ccc4c(c3)CCN4C(=O)C3CCN(C)CC3)nc2)ccc1Cl [Example 452, (S)-(5-((5-(3-((1-(1H-tetrazol-1-yl)propan-2-yl)oxy)-4-chlorophenyl)pyrimidin-2-yl)amino)indolin-1-yl) (1-methylpiperidin-4-yl)methanone]
IC50 [3]: < 10 nM

Cc1ccc(-c2cnc(Nc3cn([C@H]4CC[C@@H](N5CCOCC5)CC4)nc3OCC(F)(F)F)nc2)cc1O[C@@H](C)Cn1cnnn1 [Example 812, 5-(3-(((S)-1-(1H-tetrazol-1-yl)propan-2-yl)oxy)-4-methylphenyl)-N-(1-(cis-4-morpholinocyclohexyl)-3-(2,2,2-trifluoroethoxy)-1H-pyrazol-4-yl)pyrimidin-2-amine]
IC50 [1]: < 10 nM

C[C@@H](Cn1cnnn1)Oc1cc(-c2cnc(Nc3cc(N4CCC(N5CCOCC5)CC4)ccc3F)nc2)ccc1Cl [Example 580, (S)-5-(3-((1-(1H-tetrazol-1-yl)propan-2-yl)oxy)-4-chlorophenyl)-N-(2-fluoro-5-(4-morpholinopiperidin-1-yl)phenyl)pyrimidin-2-amine]
IC50 [3]: < 10 nM

C[C@@H](Cn1cnnn1)Oc1cc(-c2cnc(Nc3cn(CCN4CCCC4)nc3C(F)(F)F)nc2)ccc1Cl [Example 631, (S)-5-(3-((1-(1H-tetrazol-1-yl)propan-2-yl)oxy)-4-chlorophenyl)-N-(1-(2-(pyrrolidin-1-yl)ethyl)-3-(trifluoromethyl)-1H-pyrazol-4-yl)pyrimidin-2-amine]
IC50 [2]: < 10 nM

C[C@@H](Cn1cnnn1)Oc1cc(-c2cnc(Nc3cn([C@H]4CC[C@H](N5CCC[C@H]5CO)CC4)nc3OC[C@@H]3CC3(F)F)nc2)ccc1Cl [Example 871, ((S)-1-(trans-4-(4-((5-(3-(((S)-1-(1H-tetrazol-1-yl)propan-2-yl)oxy)-4-chlorophenyl)pyrimidin-2-yl)amino)-3-(((S)-2,2-difluorocyclopropyl)methoxy)-1H-pyrazol-1-yl)cyclohexyl)pyrrolidin-2-yl)methanol]
IC50 [1]: < 10 nM

C[C@@H](Cn1cccn1)Oc1cc(-c2cnc(Nc3cn([C@H]4CC[C@H](N5CCOCC5)CC4)nc3OCC(F)(F)F)nc2)ccc1C#N [Example 798, 2-(((S)-1-(1H-pyrazol-1-yl)propan-2-yl)oxy)-4-(2-((1-(trans-4-morpholinocyclohexyl)-3-(2,2,2-trifluoroethoxy)-1H-pyrazol-4-yl)amino)pyrimidin-5-yl)benzonitrile]
IC50 [1]: < 10 nM

COc1nc(N2CCNCC2)ccc1Nc1ncc(-c2ccc(Cl)c(O[C@@H](C)Cn3cnnn3)c2)cn1 [Example 614, (S)-5-(3-((1-(1H-tetrazol-1-yl)propan-2-yl)oxy)-4-chlorophenyl)-N-(2-methoxy-6-(piperazin-1-yl)pyridin-3-yl)pyrimidin-2-amine]
IC50 [2]: < 10 nM

COc1nc(N2CCN(C3CCC(F)(F)CC3)CC2)ccc1Nc1ncc(-c2ccc(Cl)c(O[C@@H](C)Cn3cnnn3)c2)cn1 [Example 636, (S)-5-(3-((1-(1H-tetrazol-1-yl)propan-2-yl)oxy)-4-chlorophenyl)-N-(6-(4-(4,4-difluorocyclohexyl)piperazin-1-yl)-2-methoxypyridin-3-yl)pyrimidin-2-amine]
IC50 [2]: 10 to 100 nM

C[C@@H](Cn1cccn1)Oc1cc(-c2cnc(Nc3cn([C@H]4CC[C@@H](N5CCOCC5)CC4)nc3C(F)(F)F)nc2)ccc1C#N [Example 785, 2-(((S)-1-(1H-pyrazol-1-yl)propan-2-yl)oxy)-4-(2-((1-(cis-4-morpholinocyclohexyl)-3-(trifluoromethyl)-1H-pyrazol-4-yl)amino)pyrimidin-5-yl)benzonitrile]
IC50 [1]: 10 to 100 nM

C[C@@H](Cn1cnnn1)Oc1cc(-c2cnc(Nc3cn(C4CC5(CNC5)C4)nc3OCC(F)(F)F)nc2)ccc1Cl [Example 925, (S)-5-(3-((1-(1H-tetrazol-1-yl)propan-2-yl)oxy)-4-chlorophenyl)-N-(1-(2-azaspiro[3.3]heptan-6-yl)-3-(2,2,2-trifluoroethoxy)-1H-pyrazol-4-yl)pyrimidin-2-amine]
IC50 [4]: < 10 nM

C[C@@H](Cn1cnnn1)Oc1cc(-c2cnc(Nc3cn(Cc4nc5ccccc5[nH]4)nc3C(F)(F)F)nc2)ccc1Cl [Example 658, (S)-N-(1-((1H-benzo[d]imidazol-2-yl)methyl)-3-(trifluoromethyl)-1H-pyrazol-4-yl)-5-(3-((1-(1H-tetrazol-1-yl)propan-2-yl)oxy)-4-chlorophenyl)pyrimidin-2-amine]
IC50 [2]: 10 to 100 nM

C[C@@H](Cn1cnnn1)Oc1cc(-c2cnc(Nc3cc(C(F)(F)F)n(C)n3)nc2)ccc1Cl [Example 711, (S)-5-(3-((1-(1H-tetrazol-1-yl)propan-2-yl)oxy)-4-chlorophenyl)-N-(1-methyl-5-(trifluoromethyl)-1H-pyrazol-3-yl)pyrimidin-2-amine]
IC50 [2]: ≥ 100 nM

Cc1ncc(N2CC(CN3CCOCC3)C2)cc1Nc1ncc(-c2ccc(Cl)c(O[C@@H](C)Cn3cnnn3)c2)cn1 [Example 610, (S)-5-(3-((1-(1H-tetrazol-1-yl)propan-2-yl)oxy)-4-chlorophenyl)-N-(2-methyl-5-(3-(morpholinomethyl)azetidin-1-yl)pyridin-3-yl)pyrimidin-2-amine]
IC50 [2]: < 10 nM

Cc1ncc(N2CC(N3CCOCC3)C2)cc1Nc1ncc(-c2ccc(Cl)c(O[C@@H](C)Cn3cnnn3)c2)cn1 [Example 605, (S)-5-(3-((1-(1H-tetrazol-1-yl)propan-2-yl)oxy)-4-chlorophenyl)-N-(2-methyl-5-(3-morpholinoazetidin-1-yl)pyridin-3-yl)pyrimidin-2-amine]
IC50 [2]: 10 to 100 nM

CC(C(N)=O)n1cc(Nc2ncc(-c3ccc(Cl)c(O[C@@H](C)Cn4cnnn4)c3)cn2)c(C(F)(F)F)n1 (stereo partly drawn) [Example 713, 2-(4-((5-(3-(((S)-1-(1H-tetrazol-1-yl)propan-2-yl)oxy)-4-chlorophenyl)pyrimidin-2-yl)amino)-3-(trifluoromethyl)-1H-pyrazol-1-yl)propanamide]
IC50 [2]: < 10 nM

C[C@@H](CO)Cn1cc(Nc2ncc(-c3ccc(Cl)c(O[C@@H](C)Cn4cnnn4)c3)cn2)c(C(F)(F)F)n1 [Example 730, (R)-3-(4-((5-(3-(((S)-1-(1H-tetrazol-1-yl)propan-2-yl)oxy)-4-chlorophenyl)pyrimidin-2-yl)amino)-3-(trifluoromethyl)-1H-pyrazol-1-yl)-2-methylpropan-1-ol]
IC50 [2]: 10 to 100 nM

C[C@@H](Cn1cnnn1)Oc1cc(-c2cnc(Nc3cn(CC4(O)CCN(C5CCC5)CC4)nc3OCC(F)(F)F)nc2)ccc1Cl [Example 908, (S)-4-((4-((5-(3-((1-(1H-tetrazol-1-yl)propan-2-yl)oxy)-4-chlorophenyl)pyrimidin-2-yl)amino)-3-(2,2,2-trifluoroethoxy)-1H-pyrazol-1-yl)methyl)-1-cyclobutylpiperidin-4-ol]
IC50 [4]: < 10 nM
